Results: PubChem BioAssay (NCI)
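These data come from cells grown in 96-well plates and exposed to compound for 48 hours at five concentrations. The concentration for full growth arrest is given as TGI.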

How the values were obtained:
Assay in all cases: NCI-60 cell line screen, 48 h
786-0 renal = system: 786-0 renal
A498 renal = system: A498 renal
A549 NSCLC = system: A549 NSCLC
ACHN renal = system: ACHN renal
CAKI-1 renal = system: CAKI-1 renal
CCRF-CEM leukemia = system: CCRF-CEM leukemia
COLO 205 colon = system: COLO 205 colon
DLD-1 colon = system: DLD-1 colon
DMS 114 small cell lung = system: DMS 114 small cell lung
DMS 273 small cell lung = system: DMS 273 small cell lung
DU-145 prostate = system: DU-145 prostate
EKVX NSCLC = system: EKVX NSCLC
HCC-2998 colon = system: HCC-2998 colon
HCT-116 colon = system: HCT-116 colon
HCT-15 colon = system: HCT-15 colon
HL-60(TB) leukemia = system: HL-60(TB) leukemia
HOP-18 NSCLC = system: HOP-18 NSCLC
HOP-62 NSCLC = system: HOP-62 NSCLC
HOP-92 NSCLC = system: HOP-92 NSCLC
HS 578T breast = system: HS 578T breast
HT29 colon = system: HT29 colon
IGROV1 ovarian = system: IGROV1 ovarian
K-562 leukemia = system: K-562 leukemia
KM12 colon = system: KM12 colon
KM20L2 colon = system: KM20L2 colon
LOX IMVI melanoma = system: LOX IMVI melanoma
LXFL 529 NSCLC = system: LXFL 529 NSCLC
M14 melanoma = system: M14 melanoma
MALME-3M melanoma = system: MALME-3M melanoma
MCF7 breast = system: MCF7 breast
MDA-N = system: MDA-N
MOLT-4 leukemia = system: MOLT-4 leukemia
NCI-H226 lung = system: NCI-H226 lung
NCI-H23 lung = system: NCI-H23 lung
NCI-H460 lung = system: NCI-H460 lung
NCI-H522 lung = system: NCI-H522 lung
NCI/ADR-RES ovarian = system: NCI/ADR-RES ovarian
OVCAR-3 ovarian = system: OVCAR-3 ovarian
OVCAR-4 ovarian = system: OVCAR-4 ovarian
OVCAR-5 ovarian = system: OVCAR-5 ovarian
OVCAR-8 ovarian = system: OVCAR-8 ovarian
PC-3 prostate = system: PC-3 prostate
RPMI-8226 leukemia = system: RPMI-8226 leukemia
RXF 393 renal = system: RXF 393 renal
RXF-631 renal = system: RXF-631 renal
SF-268 CNS = system: SF-268 CNS
SF-295 CNS = system: SF-295 CNS
SF-539 CNS = system: SF-539 CNS
SK-MEL-2 melanoma = system: SK-MEL-2 melanoma
SK-MEL-28 melanoma = system: SK-MEL-28 melanoma
SK-MEL-5 melanoma = system: SK-MEL-5 melanoma
SK-OV-3 ovarian = system: SK-OV-3 ovarian
SN12C renal = system: SN12C renal
SNB-19 CNS = system: SNB-19 CNS
SNB-75 CNS = system: SNB-75 CNS
SNB-78 CNS = system: SNB-78 CNS
SR leukemia = system: SR leukemia
SW-620 colon = system: SW-620 colon
T-47D breast = system: T-47D breast
TK-10 renal = system: TK-10 renal
U251 CNS = system: U251 CNS
UACC-257 melanoma = system: UACC-257 melanoma
UACC-62 melanoma = system: UACC-62 melanoma
UO-31 renal = system: UO-31 renal
XF 498 CNS = system: XF 498 CNS
M19-MEL melanoma = system: M19-MEL melanoma

For COc1cc(CC(C)N)ccc1O (centres undefined), the TGI (786-0 renal) was over 100 µM, the TGI (A498 renal) was over 100 µM and the TGI (A549 NSCLC) was over 100 µM. The TGI (ACHN renal) was over 100 µM, the TGI (CAKI-1 renal) was over 100 µM and the TGI (CCRF-CEM leukemia) was over 31.6 µM. The TGI (COLO 205 colon) was over 100 µM, the TGI (DLD-1 colon) was over 100 µM and the TGI (DMS 114 small cell lung) was over 100 µM. For the same compound, the TGI (DMS 273 small cell lung) was over 100 µM, the TGI (DU-145 prostate) was over 100 µM and the TGI (EKVX NSCLC) was over 100 µM. For the same compound, the TGI (HCC-2998 colon) was over 100 µM, the TGI (HCT-116 colon) was over 100 µM and the TGI (HCT-15 colon) was over 100 µM. It also gave a TGI (HL-60(TB) leukemia) of over 100 µM, a TGI (HOP-18 NSCLC) of over 100 µM and a TGI (HOP-62 NSCLC) of over 100 µM. For the same compound, the TGI (HOP-92 NSCLC) was over 100 µM, the TGI (HS 578T breast) was over 100 µM and the TGI (HT29 colon) was over 100 µM. The TGI (IGROV1 ovarian) was over 100 µM, the TGI (K-562 leukemia) was over 100 µM and the TGI (KM12 colon) was over 100 µM. It also gave a TGI (KM20L2 colon) of over 100 µM, a TGI (LOX IMVI melanoma) of over 100 µM and a TGI (LXFL 529 NSCLC) of over 100 µM. For the same compound, the TGI (M14 melanoma) was over 100 µM, the TGI (MALME-3M melanoma) was over 100 µM and the TGI (MCF7 breast) was over 100 µM. It also gave a TGI (MDA-N) of over 100 µM, a TGI (MOLT-4 leukemia) of over 100 µM and a TGI (NCI-H226 lung) of over 100 µM. It also gave a TGI (NCI-H23 lung) of over 100 µM, a TGI (NCI-H460 lung) of over 100 µM and a TGI (NCI-H522 lung) of over 100 µM. For the same compound, the TGI (NCI/ADR-RES ovarian) was over 100 µM, the TGI (OVCAR-3 ovarian) was over 100 µM and the TGI (OVCAR-4 ovarian) was over 100 µM. The TGI (OVCAR-5 ovarian) was over 100 µM, the TGI (OVCAR-8 ovarian) was over 100 µM and the TGI (PC-3 prostate) was over 100 µM. The TGI (RPMI-8226 leukemia) was over 100 µM, the TGI (RXF 393 renal) was over 100 µM and the TGI (RXF-631 renal) was over 100 µM. It also gave a TGI (SF-268 CNS) of over 100 µM, a TGI (SF-295 CNS) of over 100 µM and a TGI (SF-539 CNS) of over 100 µM. For the same compound, the TGI (SK-MEL-2 melanoma) was over 100 µM, the TGI (SK-MEL-28 melanoma) was over 100 µM and the TGI (SK-MEL-5 melanoma) was over 100 µM. For the same compound, the TGI (SK-OV-3 ovarian) was over 100 µM, the TGI (SN12C renal) was over 100 µM and the TGI (SNB-19 CNS) was over 100 µM. The TGI (SNB-75 CNS) was over 100 µM, the TGI (SNB-78 CNS) was over 100 µM and the TGI (SR leukemia) was over 100 µM. The TGI (SW-620 colon) was over 100 µM, the TGI (T-47D breast) was over 100 µM and the TGI (TK-10 renal) was over 100 µM. The TGI (U251 CNS) was over 100 µM, the TGI (UACC-257 melanoma) was over 100 µM and the TGI (UACC-62 melanoma) was over 100 µM. It also gave a TGI (UO-31 renal) of over 100 µM and a TGI (XF 498 CNS) of over 100 µM.
With Cc1cccc(C(C)C)c1NC(=O)C(=O)C(C(=O)c1ccccc1F)C1OC(=O)c2ccccc21 (centres undefined) the TGI (786-0 renal) was 36.6 µM, the TGI (A498 renal) was 45.1 µM and the TGI (A549 NSCLC) was over 100 µM. It also gave a TGI (ACHN renal) of over 100 µM, a TGI (CAKI-1 renal) of 70.5 µM and a TGI (CCRF-CEM leukemia) of 41 µM. For the same compound, the TGI (COLO 205 colon) was 41 µM, the TGI (DLD-1 colon) was 30.8 µM and the TGI (DMS 114 small cell lung) was 36.1 µM. For the same compound, the TGI (DMS 273 small cell lung) was 44.3 µM, the TGI (EKVX NSCLC) was 96.6 µM and the TGI (HCC-2998 colon) was 26.6 µM. For the same compound, the TGI (HCT-116 colon) was 27.5 µM, the TGI (HCT-15 colon) was 57.3 µM and the TGI (HOP-18 NSCLC) was 32.4 µM. It also gave a TGI (HOP-62 NSCLC) of 35.8 µM, a TGI (HOP-92 NSCLC) of 48.2 µM and a TGI (HT29 colon) of 71.7 µM. It also gave a TGI (IGROV1 ovarian) of 77.9 µM, a TGI (K-562 leukemia) of over 100 µM and a TGI (KM12 colon) of 50 µM. For the same compound, the TGI (KM20L2 colon) was 76.5 µM, the TGI (LOX IMVI melanoma) was 32.7 µM and the TGI (LXFL 529 NSCLC) was 27.4 µM. The TGI (M14 melanoma) was 38.5 µM, the TGI (M19-MEL melanoma) was 26.4 µM and the TGI (MALME-3M melanoma) was 26.9 µM. It also gave a TGI (MOLT-4 leukemia) of 27.9 µM, a TGI (NCI-H226 lung) of 21.5 µM and a TGI (NCI-H23 lung) of 40.6 µM. For the same compound, the TGI (NCI-H460 lung) was 83.9 µM, the TGI (NCI-H522 lung) was 33.6 µM and the TGI (OVCAR-3 ovarian) was 38 µM. It also gave a TGI (OVCAR-4 ovarian) of 74.2 µM, a TGI (OVCAR-5 ovarian) of 99.9 µM and a TGI (OVCAR-8 ovarian) of 59.7 µM. For the same compound, the TGI (RPMI-8226 leukemia) was 28.5 µM, the TGI (RXF 393 renal) was 27.5 µM and the TGI (RXF-631 renal) was 60.3 µM. It also gave a TGI (SF-268 CNS) of 92.9 µM, a TGI (SK-MEL-2 melanoma) of 30.1 µM and a TGI (SK-MEL-28 melanoma) of 53.7 µM. The TGI (SK-MEL-5 melanoma) was 28.5 µM, the TGI (SK-OV-3 ovarian) was 64.9 µM and the TGI (SN12C renal) was 46.8 µM. It also gave a TGI (SNB-19 CNS) of 29 µM, a TGI (SNB-75 CNS) of 45.9 µM and a TGI (SW-620 colon) of 58.9 µM. The TGI (TK-10 renal) was 91.1 µM, the TGI (U251 CNS) was 37.3 µM and the TGI (UACC-257 melanoma) was 29.4 µM. It also gave a TGI (UACC-62 melanoma) of 22.4 µM, a TGI (UO-31 renal) of 38.3 µM and a TGI (XF 498 CNS) of 23.3 µM.
